The text below walks through data of US8829003B2, “Compounds for treating proliferative disorders” (Changzhou Le Sun Pharmaceuticals Limited, priority 2010, dated 2014).

The subject of data set [1] is cancer cells. The data set is described as follows: MTT proliferation assay. Format: cell-based. The settings on record: GI50 values only in FIG. 4. The source says:
C.1. MTT Proliferation Assay.
The compounds from the examples above were subjected to a standard cellular proliferation assay using the method described previously in S. Wang et al. J Med Chem. 2004, 47, 1662-1675. The data analysis used program Deltasoft 3™ and Microsoft Excel to determine GI50 values (concentration of test compound which inhibits cell growth by 50%).

Data set [2] is described as follows: Mouse pharmacokinetics, IV and oral dosing. The settings on record: mice.
Description: For PK measurements male adult CD1 mice weighing 25-30 g (Charles River) are split into weight matched groups of 3 per group. IV dosed mice were restrained in individual restraining tubes, the tail was warmed in warm water to vasodilate the tail vein, and the IV bolus was then administered via the tail vein. Orally dosed mice were held at the scruff of the neck and dosed via a metal gavage directly into the stomach. Immediately after dosing mice are returned to their cage, plastic box cage with sawdust bedding, and food and water available. Blood samples were collected from the mouse under anaesthesia by cardiac puncture using a 1 mL syringe and 25 gauge needle at time zero and at intervals up to 8 h. Harvested blood was centrifuged at 7000×G for 2 minutes, and the plasma aspirated and frozen at 20° C. until analysis. Quantitative compound level analysis was carried out using LC-MS/MS methods. Pharmacokinetic data derived using PK Solutions 2.0, non-compartmental analysis. Oral bioavailability (% F) was calculated by taking the ratio of dose-normalised AUC values from oral versus parenteral dosing.
Data set [3] has as its system HCT-116 human colon cancer cells. Description: Cell-cycle effects, DNA content by flow cytometry. Type of data set: cell-based. The settings on record: HCT-116 cells, 0.62 μM, 48 hrs. Here is the method: HCT-116 human colon cancer cells were treated with DMSO and A.12 at GI50 and […] respectively for a period of 48 hrs. The cells were analysed for their DNA content by flow cytometry.
This further indicates the efficacy of the compounds of the invention.
Background: A flow cytometer gives signals particle by particle.

Each structure is given as a SMILES string.

As to `COc1cccc(OC)c1/C=C/S(=O)(=O)Cc1cnc(OC)c([N+](=O)[O-])c1` [A.17, (E)-5-((2,6-Dimethoxystyrylsulfonyl)methyl)-2-methoxy-3-nitropyridine], the “inhibition of cell growth” value in data set [1] is reported as “effectively inhibit cell growth”.

With `CCOC(=O)CNc1cc(CS(=O)(=O)/C=C/c2c(OC)cc(OC)cc2OC)cnc1OC` [A.13, (E)-ethyl 2-(2-methoxy-5-((2,4,6-trimethoxystyrylsulfonyl)methyl)pyridin-3-ylamino)acetate], the “inhibition of cell growth” value in data set [1] is “effectively inhibit cell growth”.

Consider `COc1cc(OC)c(/C=C/S(=O)(=O)Cc2ccc(OC)c(N3CCCCC3)n2)c(OC)c1` [A.29, (E)-3-Methoxy-2-(piperidin-9-yl)-6-((2,4,6-trimethoxystyrylsulfonyl)methyl)pyridine], for which the “inhibition of cell growth” value in data set [1] is recorded as “effectively inhibit cell growth”.

Consider `COc1cc(OC)c(/C=C/S(=O)(=O)Cc2cnc(OC)c(N)c2)c(OC)c1` [A.10, (E)-2-methoxy-5-((2,4,6-trimethoxystyrylsulfonyl)methyl)pyridin-3-amine], for which, in data set [1], the “inhibition of cell growth” value is on record as “effectively inhibit cell growth”.

As for `COc1cc(OC)c(/C=C/S(=O)(=O)Cc2cnc(OC)c(NS(C)(=O)=O)c2)c(OC)c1` [A.12, (E)-N-(2-methoxy-5-((2,4,6-trimethoxystyrylsulfonyl)methyl)pyridin-3-yl)methanesulfonamide], in data set [2] (IV and PO), the “pharmacokinetic properties compared with ON01910.Na” value is given as “significantly improved pharmacokinetic properties”. The “oral bioavailability (F)” value in data set [2] (oral, 10 mg/kg) stood at 56%. Also, in data set [1], the “inhibition of cell growth” value is reported as “effectively inhibit cell growth”. In addition, in data set [3], the “apoptosis (sub-G1 cells)” value was “increased sub-G1 cells” and the “effect on cell cycle progression” value is “block of their cell cycle progression in G2/M phase”.
